Test results as given in US8030298B2, “17β-HSD1 and STS inhibitors” (Abbott Products GmbH, priority 2005, dated 2011).

Biological target: T1, recombinant human 17β-hydroxysteroid dehydrogenase type 1 (Homo sapiens, UniProt P14061)
T1 construct: made in house; host or cells: Sf9 insect cells (baculovirus, Bac to Bac Expression System)
T1 sequence (P14061 1-328): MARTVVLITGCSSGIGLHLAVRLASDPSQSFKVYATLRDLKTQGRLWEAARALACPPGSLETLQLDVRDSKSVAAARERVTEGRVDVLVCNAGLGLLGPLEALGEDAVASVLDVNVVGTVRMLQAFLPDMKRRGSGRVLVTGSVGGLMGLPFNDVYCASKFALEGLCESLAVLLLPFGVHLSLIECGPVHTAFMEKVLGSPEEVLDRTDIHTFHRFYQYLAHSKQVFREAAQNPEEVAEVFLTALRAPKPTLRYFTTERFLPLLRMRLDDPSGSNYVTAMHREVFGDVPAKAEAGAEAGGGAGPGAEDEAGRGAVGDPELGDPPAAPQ
Assay: Inhibition of recombinant human 17β-hydroxysteroid dehydrogenase type 1 (3H-estrone to estradiol conversion, HPLC)
Type: biochemical
Conditions: read-out: Inhibition of rec. 17β-HSD1 (% inhibition); for inhibition at 0.1 µM: inhibitor concentration 100 nM; for inhibition at 1 µM: 0.5 h, inhibitor concentration 1 μm
Method: 17β-HSD1 purification: Recombinant baculovirus was generated by the “Bac to Bac Expression System” (Invitrogen). Recombinant bacmid was transfected to Sf9 insect cells using “Cellfectin Reagent” (Invitrogen). 60 h later cells were harvested; the microsomal fraction was isolated as described by Puranen et al. (1994). Aliquots were stored frozen until determination of enzymatic activity.
Assay—Inhibition of recombinant human 17β-hydroxysteroid dehydrogenase type 1: Recombinant protein (0.1 μg/ml) was incubated in 20 mM KH2PO4 pH 7.4 with 30 nM 3H-estrone and 1 mM NADPH for 30 min at RT, in the presence of potential inhibitors at concentrations of 1 μM or 0.1 μM. Inhibitor stock solutions were prepared in DMSO. Final concentration of DMSO was adjusted to 1% in all samples. The enzyme reaction was stopped by addition of 10% trichloroacetic acid (final concentration). Samples were centrifuged in a microtiter plate at 4000 rpm for 10 min. Supernatants were applied to reverse phase HPLC on a Waters Symmetry C18 column, equipped with a Waters Sentry Guard column. Isocratic HPLC runs were performed at RT at a flow rate of 1 ml/min of acetonitrile:water 48:52 as running solvent. Radioactivity was monitored in the eluate by a Packard Flow Scintillation Analyzer. Total radioactivity for estrone and estradiol were determined in each sample and percent conversion of estrone to estradiol was calculated according to the following formula:
Percent inhibition was calculated as follows: % inhibition=100−% conversion

| Compound | inhibition at 0.1 µM [%] | inhibition at 1 µM [%] |
| --- | --- | --- |
| C[C@]12CC[C@@H]3c4ccc(OCc5ccccc5)cc4CC[C@H]3[C@@H]1[C@H](C/C=C/C(=O)N1CCOCC1)c1cnoc12 [161′] | 21 | – |
| CCCc1cc2c(cc1O)CC[C@H]1[C@@H]3[C@H](CCCC(=O)NCc4ccc5c(c4)OCO5)CC(=O)[C@@]3(C)CC[C@H]21 [Compound 30] | 39.8 | – |
| CCCc1cc2c(cc1O)CC[C@H]1[C@@H]3[C@H](CCCC(=O)NCc4cccnc4)CC(=O)[C@@]3(C)CC[C@H]21 [Compound 32] | 50 | – |
| CCCc1cc2c(cc1O)CC[C@H]1[C@@H]3[C@H](CCCC(=O)NCCc4c[nH]c5c(C)cccc45)CC(=O)[C@@]3(C)CC[C@H]21 [Compound 34] | 68.8 | – |
| CCCc1cc2c(cc1O)CC[C@H]1[C@@H]3[C@H](CCCC(=O)N4CCCCC4)CC(=O)[C@@]3(C)CC[C@H]21 [Compound 36] | 56.9 | – |
| CCCc1cc2c(cc1O)CC[C@H]1[C@@H]3[C@H](CCCC(=O)N(C)Cc4ccccc4)CC(=O)[C@@]3(C)CC[C@H]21 [Compound 37] | 64 | – |
| CCCc1cc2c(cc1O)CC[C@H]1[C@@H]3[C@H](CCCC(=O)N(C)CCc4ccc(OC)c(OC)c4)CC(=O)[C@@]3(C)CC[C@H]21 [Compound 38] | 51 | – |
| CCCc1cc2c(cc1O)CC[C@H]1[C@@H]3[C@H](CCCC(=O)Nc4ccc5cn[nH]c5c4)CC(=O)[C@@]3(C)CC[C@H]21 [Compound 40] | 72 | – |
| CCCc1cc2c(cc1O)CC[C@H]1[C@@H]3[C@H](CCCC(=O)NCCOC)CC(=O)[C@@]3(C)CC[C@H]21 [Compound 41] | 25.9 | – |
| CCCc1cc2c(cc1O)CC[C@H]1[C@@H]3[C@H](CCCC(=O)NCc4ccc(F)cc4F)CC(=O)[C@@]3(C)CC[C@H]21 [Compound 42] | 53.3 | – |
| CCOc1cc2c(cc1O)CC[C@H]1[C@@H]3[C@@H](CCCC(=O)NC4CCCCC4)CC(=O)[C@@]3(C)CC[C@H]21 [Compound 44] | 55.5 | – |
| CCOc1cc2c(cc1O)CC[C@H]1[C@@H]3[C@@H](CCCC(=O)NCc4ccc5c(c4)OCO5)CC(=O)[C@@]3(C)CC[C@H]21 [Compound 45] | 54 | – |
| CCOc1cc2c(cc1O)CC[C@H]1[C@@H]3[C@@H](CCCC(=O)NCCc4c[nH]c5c(C)cccc45)CC(=O)[C@@]3(C)CC[C@H]21 [Compound 52] | 50 | 72.2 |
| CCOc1cc2c(cc1O)CC[C@H]1[C@@H]3[C@@H](CCCC(=O)N4CCCCC4)CC(=O)[C@@]3(C)CC[C@H]21 [Compound 55] | 42.6 | 71.9 |
| CCOc1cc2c(cc1O)CC[C@H]1[C@@H]3[C@@H](CCCC(=O)Nc4ccc5cn[nH]c5c4)CC(=O)[C@@]3(C)CC[C@H]21 [Compound 59] | 56.1 | 69.7 |
| COc1cc2c(cc1O)CC[C@H]1[C@@H]3[C@@H](CCCC(=O)NC4CCCCC4)CC(=O)[C@@]3(C)CC[C@H]21 [Compound 67] | 42.5 | 73.2 |
| COc1cc2c(cc1O)CC[C@H]1[C@@H]3[C@@H](CCCC(=O)NCc4ccccc4)CC(=O)[C@@]3(C)CC[C@H]21 [Compound 71] | 45.8 | 70.6 |
| COc1cc2c(cc1O)CC[C@H]1[C@@H]3[C@@H](CCCC(=O)N4CCCCC4)CC(=O)[C@H]3CC[C@H]21 [Compound 78] | 40.6 | 72 |
| COc1cc2c(cc1O)CC[C@H]1[C@@H]3[C@@H](CCCC(=O)Nc4ccc5cn[nH]c5c4)CC(=O)[C@@]3(C)CC[C@H]21 [Compound 83] | 53.9 | 71.6 |
| C[C@]12CC[C@@H]3c4ccc(O)cc4CC[C@H]3[C@@H]1[C@@H](CCCC(=O)NC1CCCCC1)CC2(F)F [Compound 102] | 41.6 | 70.6 |

| Compound | inhibition at 0.1 µM [%] | inhibition at 1 µM [%] |
| --- | --- | --- |
| C[C@]12CC[C@@H]3c4ccc(O)cc4CC[C@H]3[C@@H]1[C@@H](CCCC(=O)NCc1ccccc1)CC2(F)F [Compound 106] | 36.7 | 68 |
| C[C@]12CC[C@@H]3c4ccc(O)cc4CC[C@H]3[C@@H]1[C@@H](CCCC(=O)NCc1ccc(O)c(O)c1)CC2(F)F [Compound 109] | 35.1 | 70.7 |
| Cc1cccc2c(CCNC(=O)CCC[C@H]3CC(F)(F)[C@@]4(C)CC[C@@H]5c6ccc(O)cc6CC[C@H]5[C@H]34)c[nH]c12 [Compound 111] | 50.6 | 68.3 |
| C[C@]12CC[C@@H]3c4ccc(O)cc4CC[C@H]3[C@@H]1[C@@H](CCCC(=O)N1CCCCC1)CC2(F)F [Compound 113] | 47.2 | 76.9 |
| COc1ccc(CCN(C)C(=O)CCC[C@H]2CC(F)(F)[C@@]3(C)CC[C@@H]4c5ccc(O)cc5CC[C@H]4[C@H]23)cc1OC [Compound 116] | 49.3 | – |
| C[C@]12CC[C@@H]3c4ccc(O)cc4CC[C@H]3[C@@H]1[C@H](CCC(=O)NC1CC1)CC2(F)F [Compound 120] | 37.3 | – |
| C[C@]12CC[C@@H]3c4ccc(O)cc4CC[C@H]3[C@@H]1[C@H](CCC(=O)NC1CCCCC1)CC2(F)F [Compound 121] | 63.6 | – |
| C[C@]12CC[C@@H]3c4ccc(O)cc4CC[C@H]3[C@@H]1[C@H](CCC(=O)NCc1ccc3c(c1)OCO3)CC2(F)F [Compound 122] | 34 | – |
| C[C@]12CC[C@@H]3c4ccc(O)cc4CC[C@H]3[C@@H]1[C@H](CCC(=O)NCc1ccccc1)CC2(F)F [Compound 125] | 29.2 | – |
| C[C@]12CC[C@@H]3c4ccc(O)cc4CC[C@H]3[C@@H]1[C@H](CCC(=O)NCc1ccc(O)c(O)c1)CC2(F)F [Compound 127] | 21.1 | – |
| COc1cc(CNC(=O)CC[C@@H]2CC(F)(F)[C@@]3(C)CC[C@@H]4c5ccc(O)cc5CC[C@H]4[C@H]23)cc(OC)c1 [Compound 128] | 21.2 | – |
| Cc1cccc2c(CCNC(=O)CC[C@@H]3CC(F)(F)[C@@]4(C)CC[C@@H]5c6ccc(O)cc6CC[C@H]5[C@H]34)c[nH]c12 [Compound 129] | 33.1 | – |
| C[C@]12CC[C@@H]3c4ccc(O)cc4CC[C@H]3[C@@H]1[C@H](CCC(=O)N1CCCCC1)CC2(F)F [Compound 131] | 19.8 | – |
| CCN(CC)C(=O)CC[C@@H]1CC(F)(F)[C@@]2(C)CC[C@@H]3c4ccc(O)cc4CC[C@H]3[C@H]12 [Compound 133] | 71.4 | – |
| COc1ccc(CCN(C)C(=O)CC[C@@H]2CC(F)(F)[C@@]3(C)CC[C@@H]4c5ccc(O)cc5CC[C@H]4[C@H]23)cc1OC [Compound 134] | 50.5 | – |
| CCCc1cc2c(cc1O)CC[C@H]1[C@@H]3[C@H](CCCC(=O)NCc4ccccc4)CC(=O)[C@@]3(C)CC[C@H]21 [Example 2, N-Benzyl-4-(3-hydroxy-17-oxo-2-propyl-estra-1,3,5(10)-trien-15β-yl)-butyramide] | 54.8 | – |
| COCCc1cc2c(cc1O)CC[C@H]1[C@@H]3[C@H](CCCC(=O)NCc4ccccc4)CC(=O)[C@@]3(C)CC[C@H]21 [Example 3, N-Benzyl-4-(3-hydroxy-2-(2-methoxy-ethyl)-17-oxo-estra-1,3,5(10)-trien-15β-yl)-butyramide] | 19.6 | – |
| CCCc1cc2c(cc1O)CC[C@H]1[C@@H]3[C@H](CCCC(=O)N4CCOCC4)CC(=O)[C@@]3(C)CC[C@H]21 [Example 6, 3-Hydroxy-15β-(4-morpholin-4-yl-4-oxo-butyl)-2-propyl-estra-1,3,5(10)-trien-17-one] | 37.9 | – |
| C[C@]12CC[C@@H]3c4ccc(O)cc4CC[C@H]3[C@@H]1[C@H](CCCC(=O)N1CCOCC1)CC2(F)F [Example 90] | 63.5 | – |
| C[C@]12CC[C@@H]3c4ccc(O)cc4CC[C@H]3[C@@H]1[C@@H](CCCC(=O)N1CCOCC1)CC2(F)F [Example 91, 4-(17,17-Difluoro-3-hydroxy-estra-1,3,5(10)-trien-15α-yl)-1-morpholin-4-yl-butan-1-one] | 32 | – |
